Data reported in US9062038B2, “Heteroaryls and uses thereof” (Millennium Pharmaceuticals, Inc., priority 2010, dated 2015).

How the values were obtained:
PI3Kalpha = target: T1, PI3Kalpha (Homo sapiens, UniProt P42336); assay: Human PI3Kα enzyme assay (HTRF); type: biochemical
T1 construct: His (N); host or cells: SF9 insect cells (baculovirus)
Source text: (§1) The catalytic subunits of PI3Ks are cloned into either pDEST8(p110 alpha) or pDEST10(p110beta, p110delta, and p110gamma) as N-terminal His tagged fusion proteins using the Gateway system (Invitrogen, catalog#11804-010 for pDEST8 and 11806-015 for pDEST10). The sequences are verified before recombinant protein expression using the Baculovirus Expression System with Gateway® Technology. The accession numbers for the subunits are as follows: • p110 alpha (GB: U79143) • p110beta (GB: S67334) • p110delta (GB: U86453) • p110gamma (GB: X83368)
(§2) The regulatory subunits of PI3Ks are cloned into pDEST8 as un-tagged protein using the Gateway system (Catalog#11804-010). […]
(§3) 0.5 uL compounds in DMSO are added to wells of a 384 well microtitre plate (Corning 3575). […] Then 5 ul PI3K stop mix (50 mM Hepes, 5 mM DTT, 150 mM NaCl, 0.01% Tween-20, 15 mM EDTA and 25 nM biotin-PI(3,4,5)P3 (Echelon) is added to quench the reaction followed immediately by addition of 5 ul HTRF detection mix (50 mM Hepes, 5 mM DTT, 150 mM NaCl, 0.01% Tween-20, 40 mM KF, 10 nM GST:GRP-1 PH domain (Millennium Protein Sciences Group), 15 nM Streptavidin-XL (CisBio) and 0.375 nM anti-GST antibody (CisBio) at pH 7.00). The plates are then incubated for 1 hour at room temperature with shaking and then read on a BMG PheraStar Plus reader.

PI3K beta = target: T2, PI3K beta (Homo sapiens, UniProt P42338); assay: Human PI3K beta enzyme assay (HTRF, procedure as for PI3K alpha); type: biochemical
T2 construct: His (N); host or cells: SF9 insect cells (baculovirus)
Source text: as §1, §2
as §3, with “reader. […]” for “reader.”

T2 sequence (P42338 whole entry): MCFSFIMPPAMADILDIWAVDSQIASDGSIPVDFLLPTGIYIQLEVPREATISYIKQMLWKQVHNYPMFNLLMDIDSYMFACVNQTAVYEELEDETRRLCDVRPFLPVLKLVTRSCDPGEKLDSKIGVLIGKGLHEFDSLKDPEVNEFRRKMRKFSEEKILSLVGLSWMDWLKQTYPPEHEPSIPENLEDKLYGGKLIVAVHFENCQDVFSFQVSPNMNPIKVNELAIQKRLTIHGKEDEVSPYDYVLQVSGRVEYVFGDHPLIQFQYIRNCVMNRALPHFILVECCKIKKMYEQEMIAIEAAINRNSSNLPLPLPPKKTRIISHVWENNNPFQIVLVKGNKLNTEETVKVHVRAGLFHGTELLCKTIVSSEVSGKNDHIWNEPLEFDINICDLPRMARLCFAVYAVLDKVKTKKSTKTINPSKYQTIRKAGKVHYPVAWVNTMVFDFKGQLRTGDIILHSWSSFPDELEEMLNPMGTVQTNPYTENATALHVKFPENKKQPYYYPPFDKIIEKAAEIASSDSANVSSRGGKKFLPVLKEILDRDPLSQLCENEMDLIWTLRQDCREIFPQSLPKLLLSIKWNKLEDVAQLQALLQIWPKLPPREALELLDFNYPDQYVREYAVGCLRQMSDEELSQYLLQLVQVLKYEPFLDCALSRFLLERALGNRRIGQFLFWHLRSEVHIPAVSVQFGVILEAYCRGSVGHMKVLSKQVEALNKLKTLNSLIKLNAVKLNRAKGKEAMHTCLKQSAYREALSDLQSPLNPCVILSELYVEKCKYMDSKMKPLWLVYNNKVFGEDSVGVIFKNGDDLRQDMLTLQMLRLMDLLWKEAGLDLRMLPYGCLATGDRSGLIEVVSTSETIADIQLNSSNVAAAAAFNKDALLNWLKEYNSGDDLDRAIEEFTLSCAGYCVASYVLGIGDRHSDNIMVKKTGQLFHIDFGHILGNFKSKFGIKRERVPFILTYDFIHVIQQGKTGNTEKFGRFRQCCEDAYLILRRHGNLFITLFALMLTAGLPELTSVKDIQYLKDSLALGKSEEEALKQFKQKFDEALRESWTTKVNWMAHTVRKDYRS
T2 sequence (P27986 whole entry partner): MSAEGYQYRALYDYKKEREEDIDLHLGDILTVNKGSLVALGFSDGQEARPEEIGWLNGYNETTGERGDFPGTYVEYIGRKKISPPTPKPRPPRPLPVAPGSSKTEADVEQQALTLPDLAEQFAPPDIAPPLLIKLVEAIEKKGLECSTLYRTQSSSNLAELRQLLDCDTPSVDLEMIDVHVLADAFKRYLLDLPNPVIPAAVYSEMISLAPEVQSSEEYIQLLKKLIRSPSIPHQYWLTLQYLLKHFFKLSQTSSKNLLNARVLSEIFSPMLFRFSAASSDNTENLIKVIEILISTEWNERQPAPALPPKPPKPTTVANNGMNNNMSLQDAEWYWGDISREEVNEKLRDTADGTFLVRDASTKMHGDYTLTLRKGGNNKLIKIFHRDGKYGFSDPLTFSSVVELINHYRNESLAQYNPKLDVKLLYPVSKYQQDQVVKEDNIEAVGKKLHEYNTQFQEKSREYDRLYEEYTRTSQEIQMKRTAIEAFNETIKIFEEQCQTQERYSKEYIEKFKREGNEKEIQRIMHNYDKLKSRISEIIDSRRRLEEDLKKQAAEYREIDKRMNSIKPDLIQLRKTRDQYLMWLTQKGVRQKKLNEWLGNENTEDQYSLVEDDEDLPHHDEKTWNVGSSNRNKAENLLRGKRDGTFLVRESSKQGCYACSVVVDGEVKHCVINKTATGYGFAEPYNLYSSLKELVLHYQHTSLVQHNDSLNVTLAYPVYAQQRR
T1 sequence (P42336 whole entry): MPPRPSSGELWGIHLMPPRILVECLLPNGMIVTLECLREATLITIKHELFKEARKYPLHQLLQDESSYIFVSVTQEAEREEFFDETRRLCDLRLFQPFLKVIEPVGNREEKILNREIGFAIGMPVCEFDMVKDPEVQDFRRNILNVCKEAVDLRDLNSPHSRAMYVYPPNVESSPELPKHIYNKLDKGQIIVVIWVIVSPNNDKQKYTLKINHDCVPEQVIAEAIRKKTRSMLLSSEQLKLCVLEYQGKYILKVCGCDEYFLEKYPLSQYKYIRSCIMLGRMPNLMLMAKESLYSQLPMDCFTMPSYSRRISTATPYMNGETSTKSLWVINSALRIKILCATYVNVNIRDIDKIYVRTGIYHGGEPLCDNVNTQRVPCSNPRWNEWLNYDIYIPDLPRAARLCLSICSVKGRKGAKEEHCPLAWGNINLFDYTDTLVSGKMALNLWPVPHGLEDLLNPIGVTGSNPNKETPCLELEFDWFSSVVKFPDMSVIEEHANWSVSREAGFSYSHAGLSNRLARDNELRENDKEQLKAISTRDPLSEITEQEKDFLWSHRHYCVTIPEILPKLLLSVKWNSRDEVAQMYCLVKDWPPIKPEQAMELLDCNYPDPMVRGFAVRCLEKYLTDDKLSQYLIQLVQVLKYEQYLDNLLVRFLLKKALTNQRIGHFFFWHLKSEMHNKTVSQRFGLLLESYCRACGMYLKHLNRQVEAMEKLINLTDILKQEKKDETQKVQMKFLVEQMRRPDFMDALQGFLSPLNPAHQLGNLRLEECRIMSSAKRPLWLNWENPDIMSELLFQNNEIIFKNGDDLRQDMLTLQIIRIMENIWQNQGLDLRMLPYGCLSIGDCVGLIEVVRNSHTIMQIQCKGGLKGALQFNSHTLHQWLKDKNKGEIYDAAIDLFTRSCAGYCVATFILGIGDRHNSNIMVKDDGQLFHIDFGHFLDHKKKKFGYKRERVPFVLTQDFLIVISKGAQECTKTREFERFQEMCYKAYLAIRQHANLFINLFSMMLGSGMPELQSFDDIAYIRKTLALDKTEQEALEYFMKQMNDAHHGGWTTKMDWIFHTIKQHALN
T1 sequence (P27986 whole entry partner): as the sequence (P27986 whole entry partner) above

Structure (SMILES) | IC50 (PI3Kalpha) | IC50 (PI3K beta)
Clc1ccc(Cc2oc(-c3ccncc3)nc2-c2nnc[nH]2)cc1 [Compound 2, 4-[5-(4-chlorobenzyl)-4-(4H-1,2,4-triazol-3-yl)-1,3-oxazol-2-yl]pyridine] | > 1000 nM | 100 to 1000 nM
NC(=O)c1nc(-c2ccncc2)oc1Cc1ccc(Cl)cc1 [Compound 1, 5-(4-chlorobenzyl)-2-pyridin-4-yl-1,3-oxazole-4-carboxamide] | > 1000 nM | 100 to 1000 nM
